In ChEMBL document CHEMBL1157847, “Dichloro-4-quinolinol-3-carboxylic acid: synthesis and antioxidant abilities to scavenge radicals and to protect methyl linoleate and DNA” (Eur J Med Chem, 2010):

Key:
Assay type in all cases: functional
[1] = Antioxidant activity against beta-carotene bleaching assessed as decrease of absorbance at 0.3 mM after 100 mins relative to control; set-up: scale not given: the % may be the effect or the level left
[2] = Antioxidant activity against hydroxyl radical-induced DNA damage assessed as TBARS production at 400 uM after 30 mins relative to control
[3] = Antioxidant activity against Cu(2+)/GSH-induced DNA damage assessed as TBARS production at 200 uM after 4 hrs relative to control
[4] = Antioxidant activity assessed as residual galvinoxyl radical scavenging activity at 1.5 mM after 30 mins relative to control
[5] = Antioxidant activity assessed as residual ABTS cationic radical scavenging activity at 1.5 mM after 30 mins relative to control
[6] = Antioxidant activity against AAPH-induced DNA damage assessed as TBARS production at 200 uM after 4 hrs relative to control
[7] = Antioxidant activity against AAPH-induced linoleic acid oxidation assessed as exhausted methyl linoleate at 2 mM after 4 hrs relative to control
[8] = tested on: Radical scavenging activity; test: Antioxidant activity assessed as residual DPPH radical scavenging activity at 1.5 mM after 30 mins relative to control

Row | Structure (SMILES) | Activity [1] [%] | Activity [2] [%] | Activity [3] [%] | Activity [4] [%] | Activity [5] [%] | Activity [6] [%] | Activity [7] [%] | Activity [8] [%]
1 | O=C(O)c1cnc2ccccc2c1O | 77.3 | 90.4 | 96.6 | 102 | 101 | 103 | 113 | 94.6
2 | O=C(O)c1cnc2cc(Cl)cc(Cl)c2c1O | 77.3 | 92.7 | 98.3 | 93.5 | 90 | 98.6 | 111 | 91.2
3 | O=C(O)c1cnc2c(Cl)c(Cl)ccc2c1O | 108 | 88.7 | 111 | 102 | 97.5 | 97.9 | 41.9 | 93.4
4 | O=C(O)c1cnc2c(Cl)ccc(Cl)c2c1O | 77.3 | 84.6 | 103 | 104 | 99.9 | 95.4 | 62.7 | 94.1
5 | O=C(O)c1cnc2cc(Cl)ccc2c1O | 91.1 | 102 | 88.9 | 104 | 102 | 95 | 107 | 94.7
6 | O=C(O)c1cnc2c(Cl)cc(Cl)cc2c1O | 129 | 83.3 | 95.4 | 104 | 104 | 99.4 | 7.3 | 93.8
